# Test results published in patent publication US9198855B2, “Veterinary dermatologic composition” (Dermaconcept JMC, priority 2001, dated 2015).
# Legend:
# [1] = system: Staphylococcus Intermedius; test: Multiplication of Staphylococcus Intermedius cultures, doses 0-100 ppm in usual culture environment without solubilising agent; assay type: cell-based; conditions: for concentration completely inhibiting multiplication of Staphylococcus Intermedius cultures: complete inhibition; for concentration partly inhibiting multiplication of Staphylococcus Intermedius cultures: partial inhibition
# Experimental: (§1) The minimum inhibitory concentration in case of Malassezia pachyadermatis was 25 ppm. Experiments were carried out using doses of 0, 5, 10, 25, 50 and 100 ppm of phytosphingosin and its hydrochloric acid salt on Staphylococcus Intermedius in usual culture environment without solubilising agent.
# Staphylococcus aureus = conditions: inflammated, depilated guinea pig skin; cited from earlier work
# Candida albicans = conditions: inflammated, depilated guinea pig skin; cited from earlier work
# [2] = system: Malassezia pachyadermatis; test: In-vitro mycological study, minimum inhibitory concentration; assay type: cell-based, Malassezia pachydermatis
# Experimental: as §1
# However the effect is not limited to cats and dogs but extends to other furry animals, such as horses, rabbits, […]
MIC ([2]; Malassezia pachyadermatis),Compound,concentration completely inhibiting multiplication of Staphylococcus Intermedius cultures [1],concentration partly inhibiting multiplication of Staphylococcus Intermedius cultures [1],activity against Staphylococcus aureus (Staphylococcus aureus),activity against Candida albicans (Candida albicans),anti-fungal action against Malassezia pachydermatis ([2]; in-vitro mycological studies)
,"CCCCCCCCCCCCCC[C@@H](O)[C@@H](O)[C@@H](N)CO.Cl [phytosphingosin hydrochloric acid salt, Phytosphingosin hydrochloric acid]",10 ppm,5 ppm,,,
,"CCCCCCCCCCCCC/C=C/[C@@H](O)[C@@H](N)CO [Sphingosin, sphingosin]",,,little effect,little effect,
25 µg/mL,CCCCCCCCCCCCCC[C@@H](O)[C@@H](O)[C@@H](N)CO [phytosphingosin],10 ppm,5 ppm,,,anti-fungal action
,CCCCCCCCCCCCCCC[C@@H](O)[C@@H](N)CO [sphinganin],,,effective,effective,
